In US7960427B2, “5-hydroxyindole-3-carboxylate derivatives and uses thereof” (priority 2004, dated 2011):
Values after ≈ are worked out from the molar mass of the structure shown. Counter-ions that a name gives are not always drawn.

How the values were obtained:
2.2.15 cells = experiment: Cytotoxicity (TC50) in 2.2.15 cells; assay type: cell-based
Experimental: (§1) All compounds were evaluated for their anti-HBV activities, namely the ability to inhibit the replication of HBV DNA and the production of HBsAg and HBeAg in HBV-infected 2.2.15 cells.
(§2) The samples were dissolved in DMSO for appropriate concentrations, and then each was diluted 3-fold with culture medium. The 2.2.15 cells were planted into 96-well culture plates. […] The culture supernatants and 2.2.15 cells were collected respectively on the 8th plant day. The secretion concentrations of HBsAg and HBeAg in the culture supernatants were measured by RIA on SPRIA Kit for Detection of HBsAg and HBeAg (Beijing North Institute of Biological Technology), and the replication of HBV DNA was measured by dot hybridization with a^32PdCTP (FuRui Biological Technology Ltd., China).

HBV DNA = experiment: In vitro anti-HBV activity: replication of HBV DNA in 2.2.15 cells (dot hybridization); assay type: cell-based, Hepatitis B virus (HBV); conditions: for IC50: Hepatitis B virus, read-out: DNA replication IC50; for DNA replication SI: selectivity index
Experimental: as §1, §2

HIV-1 protease = biological target: T1, HIV-1 protease (Human immunodeficiency virus type 1 group M subtype B, UniProt P04585); experiment: Anti-HIV-1 protease activity (fluorescence labeled substrate); assay type: biochemical; conditions: for inhibition ratio at 0.5 ug/ml: sample concentration 0.5 ug/ml; for inhibition ratio at 2.0 ug/ml: sample concentration 2.0 ug/ml; for inhibition ratio at 10 ug/ml: sample concentration 10 ug/ml; for inhibition ratio at 50 ug/ml: sample concentration 50 ug/ml; for inhibition ratio at 250 ug/ml: sample concentration 250 ug/ml
T1 construct: The genetically engineered target enzyme (HIV-1 protease, preserved at −85° C.)
Experimental: HIV-1 protease can cut the fluorescence labeled substrate under optimal condition and reaction system, so the activity of enzyme is determined by the fluorescence in the product of enzymatic reaction. The samples are added into the reaction system to observe the inhibitive effect on the enzyme.
The samples and the reference drug Indinavir ([…].) were dissolved in DMSO or redistilled water for appropriate concentration. Each was diluted 5-fold and then added into the buffer containing fluorescence labeled substrate (MP Co.). The genetically engineered target enzyme (HIV-1 protease, preserved at −85° C.) was added to the buffer and incubated under the optimal reaction condition. The fluorescence was determined by FLUO star Galaxy fluorometer.

CCOC(=O)c1c(CSc2ccc(F)cc2)n(C)c2cc(Br)c(O)c(CN3CCN(C)CC3)c12 [Example 17, Ethyl 6-bromo-5-hydroxy-1-methyl-4-[(4-methyl-1-piperazinyl)methyl]-2-[(4-fluorophenyl)thiomethyl]-1H-indole-3-carboxylate dihydrochloride]
TC50 (2.2.15 cells): 62.50 µg/mL
IC50 (HBV DNA): 17.8 µg/mL
DNA replication SI (HBV DNA): 3.5
inhibition ratio at 0.5 ug/ml (HIV-1 protease): −6.1
inhibition ratio at 2.0 ug/ml (HIV-1 protease): −8.3
inhibition ratio at 10 ug/ml (HIV-1 protease): −13.0
inhibition ratio at 50 ug/ml (HIV-1 protease): −17.3
inhibition ratio at 250 ug/ml (HIV-1 protease): 27.6

CCOC(=O)c1c(CSc2ccc(F)cc2)n(C2CC2)c2cc(Br)c(O)c(CN3CCN(C)CC3)c12 [Example 19, Ethyl 6-bromo-1-cyclopropyl-5-hydroxy-4-[(4-methyl-1-piperazinyl)methyl]-2-[(4-fluorophenyl)thiomethyl]-1H-indole-3-carboxylate dihydrochloride]
TC50 (2.2.15 cells): 37.04 µg/mL
IC50 (HBV DNA): 13 µg/mL
DNA replication SI (HBV DNA): 2.85
IC50 (HIV-1 protease): 232 µM
inhibition ratio at 0.5 ug/ml (HIV-1 protease): −5.6
inhibition ratio at 2.0 ug/ml (HIV-1 protease): −8.9
inhibition ratio at 10 ug/ml (HIV-1 protease): −8.9
inhibition ratio at 50 ug/ml (HIV-1 protease): 20.7
inhibition ratio at 250 ug/ml (HIV-1 protease): 63.9

CCOC(=O)c1c(CS(=O)(=O)c2cccc(OC)c2)n(C)c2cc(Br)c(O)c(CN(C)C)c12 [Example 55, Ethyl 6-bromo-4-[(dimethylamino)methyl]-5-hydroxy-1-methyl-2-[(3-methoxyphenyl)sulfonylmethyl]-1H-indole-3-carboxylate]
TC50 (2.2.15 cells): 21.56 µg/mL (≈ 40 µM)
IC50 (HBV DNA): 2.2 µg/mL (≈ 4.08 µM)
DNA replication SI (HBV DNA): 9.7
IC50 (HIV-1 protease): 49 µM
inhibition ratio at 0.5 ug/ml (HIV-1 protease): 2.1
inhibition ratio at 2.0 ug/ml (HIV-1 protease): 6.7
inhibition ratio at 10 ug/ml (HIV-1 protease): 0.1
inhibition ratio at 50 ug/ml (HIV-1 protease): 30.5
inhibition ratio at 250 ug/ml (HIV-1 protease): 98.0

CCOC(=O)c1c(C[S+]([O-])c2ccccc2C)n(C)c2cc(Br)c(O)c(CN3CCOCC3)c12 (stereo not shown) [Example 57, Ethyl 6-bromo-5-hydroxy-1-methyl-4-(morpholinomethyl)-2-[(2-methylphenyl)sulfinylmethyl]-1H-indole-3-carboxylate]
TC50 (2.2.15 cells): 51.53 µg/mL (≈ 93.8 µM)
IC50 (HBV DNA): 17 µg/mL (≈ 30.9 µM)
DNA replication SI (HBV DNA): 3.03
inhibition ratio at 0.5 ug/ml (HIV-1 protease): 6.4
inhibition ratio at 2.0 ug/ml (HIV-1 protease): 9.2
inhibition ratio at 10 ug/ml (HIV-1 protease): 1.9
inhibition ratio at 50 ug/ml (HIV-1 protease): 15.5
inhibition ratio at 250 ug/ml (HIV-1 protease): 41.0

CCOC(=O)c1c(C[S+]([O-])c2ccc(F)cc2)n(C)c2cc(Br)c(O)c(CN3CCOCC3)c12 (stereo not shown) [Example 58, Ethyl 6-bromo-5-hydroxy-1-methyl-4-(morpholinomethyl)-2-[(4-fluorophenyl)sulfinylmethyl]-1H-indole-3-carboxylate]
TC50 (2.2.15 cells): >500 µg/mL
IC50 (HBV DNA): 57.6 µg/mL (≈ 104 µM)
DNA replication SI (HBV DNA): >8.7
inhibition ratio at 0.5 ug/ml (HIV-1 protease): 11.7
inhibition ratio at 2.0 ug/ml (HIV-1 protease): 11.6
inhibition ratio at 10 ug/ml (HIV-1 protease): 15.9
inhibition ratio at 50 ug/ml (HIV-1 protease): 22.9
inhibition ratio at 250 ug/ml (HIV-1 protease): 37.4

CCOC(=O)c1c(C[S+]([O-])c2ccc(F)c(F)c2)n(C2CC2)c2cc(Br)c(O)c(CN3CCN(C)CC3)c12 (stereo not shown) [Example 67, Ethyl 6-bromo-1-cyclopropyl-5-hydroxy-4-[(4-methyl-1-piperazinyl)methyl]-2-[(3,4-difluorophenyl)sulfinylmethyl]-1H-indole-3-carboxylate dihydrochloride]
TC50 (2.2.15 cells): 34.35 µg/mL
IC50 (HBV DNA): 5.4 µg/mL
DNA replication SI (HBV DNA): 6.35
inhibition ratio at 0.5 ug/ml (HIV-1 protease): 3.2
inhibition ratio at 2.0 ug/ml (HIV-1 protease): 10.5
inhibition ratio at 10 ug/ml (HIV-1 protease): 9.4
inhibition ratio at 50 ug/ml (HIV-1 protease): 0.5
inhibition ratio at 250 ug/ml (HIV-1 protease): 19.3

CCOC(=O)c1c(C[S+]([O-])c2ccccc2)n(C)c2cc(Br)c(O)c(Cn3ccnc3)c12 (stereo not shown) [Example 116, Ethyl 6-bromo-5-hydroxy-4-[(1-imidazolyl)methyl]-1-methyl-2-(phenylsulfinylmethyl)-1H-indole-3-carboxylate]
TC50 (2.2.15 cells): 8.12 µg/mL (≈ 15.7 µM)
IC50 (HBV DNA): 2.56 µg/mL (≈ 4.96 µM)
DNA replication SI (HBV DNA): 3.17
inhibition ratio at 0.5 ug/ml (HIV-1 protease): 0.4
inhibition ratio at 2.0 ug/ml (HIV-1 protease): −2.4
inhibition ratio at 10 ug/ml (HIV-1 protease): −1.5
inhibition ratio at 50 ug/ml (HIV-1 protease): 11.1
inhibition ratio at 250 ug/ml (HIV-1 protease): 37.5

CCOC(=O)c1c(C[S+]([O-])c2ccc(C)cc2)n(C)c2cc(Br)c(O)c(CNC(=N)N)c12.Cl (stereo not shown) [Example 152, Ethyl 6-bromo-4-(guanidinylmethyl)-5-hydroxy-1-methyl-2-[(4-methylphenyl)sulfinylmethyl]-1H-indole-3-carboxylate hydrochloride]
TC50 (2.2.15 cells): 192.45 µg/mL
IC50 (HBV DNA): 10.2 µg/mL
DNA replication SI (HBV DNA): 18.8

CCOC(=O)c1c(CS(=O)(=O)Cc2ccco2)n(C2CC2)c2cc(Br)c(O)c(Cn3ccnc3)c12 [Example 162, Ethyl 6-bromo-1-cyclopropyl-5-hydroxy-4-[(1-imidazolyl)methyl]-2-[(2-furylmethyl)sulfonylmethyl]-1H-indole-3-carboxylate]
TC50 (2.2.15 cells): 128.30 µg/mL (≈ 228 µM)
IC50 (HBV DNA): 51.7 µg/mL (≈ 92 µM)
DNA replication SI (HBV DNA): 2.48

CCOC(=O)c1c(CS(=O)(=O)Cc2ccc(F)cc2)n(C)c2cc(Br)c(O)c(Cn3ccnc3)c12 [Example 163, Ethyl 6-bromo-5-hydroxy-4-[(1-imidazolyl)methyl]-1-methyl-2-[(4-fluorobenzyl)sulfonylmethyl]-1H-indole-3-carboxylate]
TC50 (2.2.15 cells): 21.39 µg/mL (≈ 37.9 µM)
IC50 (HBV DNA): 0.68 µg/mL (≈ 1.2 µM)
DNA replication SI (HBV DNA): 31.45

CCOC(=O)c1c(CS(=O)(=O)c2ccc(C)cc2)n(C)c2ccc(O)c(Cn3ccnc3)c12 [Example 164, Ethyl 5-hydroxy-4-[(1-imidazolyl)methyl]-1-methyl-2-[(4-methylphenyl)sulfonylmethyl]-1H-indole-3-carboxylate]
TC50 (2.2.15 cells): 17.7 µg/mL (≈ 37.9 µM)
IC50 (HBV DNA): 2 µg/mL (≈ 4.28 µM)
DNA replication SI (HBV DNA): 8.9

CCOC(=O)c1c(CS(=O)(=O)Cc2ccccc2F)n(C2CC2)c2cc(Br)c(O)c(Cn3ccnc3C)c12 [Example 165, Ethyl 6-bromo-1-cyclopropyl-5-hydroxy-4-[(2-methyl-1-imidazolyl)methyl]-2-[(2-fluorobenzyl)sulfonylmethyl]-1H-indole-3-carboxylate]
TC50 (2.2.15 cells): 7.76 µg/mL (≈ 12.8 µM)
IC50 (HBV DNA): 3.14 µg/mL (≈ 5.19 µM)
DNA replication SI (HBV DNA): 2.47

CCOC(=O)c1c(CS(=O)(=O)c2ccccc2)n(C)c2cc(Br)c(O)c(Cn3ccnc3C)c12 [Example 166, Ethyl 6-bromo-5-hydroxy-1-methyl-4-[(2-methyl-1-imidazolyl)methyl]-2-(phenylsulfonylmethyl)-1H-indole-3-carboxylate]
TC50 (2.2.15 cells): 53.42 µg/mL (≈ 97.8 µM)
IC50 (HBV DNA): 7.53 µg/mL (≈ 13.8 µM)
DNA replication SI (HBV DNA): 7.09

CCOC(=O)c1c(CS(=O)(=O)Cc2ccccc2)n(C)c2cc(Br)c(O)c(Cn3ccnc3C)c12 [Example 168, Ethyl 6-bromo-5-hydroxy-1-methyl-4-[(2-methyl-1-imidazolyl)methyl]-2-(benzylsulfonylmethyl)-1H-indole-3-carboxylate]
TC50 (2.2.15 cells): 35.61 µg/mL (≈ 63.5 µM)
IC50 (HBV DNA): 7.04 µg/mL (≈ 12.6 µM)
DNA replication SI (HBV DNA): 5.06

CCOC(=O)c1c(CS(=O)(=O)Cc2ccccc2)n(C)c2cc(Br)c(O)c(CNC(=N)N)c12 [Example 173, Ethyl 6-bromo-4-(guanidinylmethyl)-5-hydroxy-1-methyl-2-(benzylsulfonylmethyl)-1H-indole-3-carboxylate]
TC50 (2.2.15 cells): 24.69 µg/mL (≈ 45.9 µM)
IC50 (HBV DNA): 5.04 µg/mL (≈ 9.38 µM)
DNA replication SI (HBV DNA): 4.90

CCOC(=O)c1c(CS(=O)(=O)c2ccc(C(F)(F)F)cc2)n(C)c2cc(Br)c(O)c(Cn3ccnc3C)c12 [Example 180, Ethyl 6-bromo-5-hydroxy-1-methyl-4-[(2-methyl-1-imidazolyl)methyl]-2-[(4-trifluoromethylphenyl)sulfonylmethyl]-1H-indole-3-carboxylate]
TC50 (2.2.15 cells): 51.36 µg/mL (≈ 83.6 µM)
IC50 (HBV DNA): 3.56 µg/mL (≈ 5.79 µM)
DNA replication SI (HBV DNA): 14.43

CCOC(=O)c1c(C[S+]([O-])Cc2ccccc2F)n(C2CC2)c2cc(Br)c(O)c(Cn3ccnc3C)c12 (stereo not shown) [Example 183, Ethyl 6-bromo-1-cyclopropyl-5-hydroxy-4-[(2-methyl-1-imidazolyl)methyl]-2-[(2-fluorobenzyl)sulfinylmethyl]-1H-indole-3-carboxylate]
TC50 (2.2.15 cells): 37.04 µg/mL (≈ 62.9 µM)
IC50 (HBV DNA): 3.45 µg/mL (≈ 5.86 µM)
DNA replication SI (HBV DNA): 10.74

CCOC(=O)c1c(C[S+]([O-])Cc2ccc(F)cc2)n(C)c2cc(Br)c(O)c(Cn3ccnc3C)c12 (stereo not shown) [Example 184, Ethyl 6-bromo-5-hydroxy-1-methyl-4-[(2-methyl-1-imidazolyl)methyl]-2-[(4-fluorobenzyl)sulfinylmethyl]-1H-indole-3-carboxylate]
TC50 (2.2.15 cells): 53.42 µg/mL (≈ 95 µM)
IC50 (HBV DNA): 0.94 µg/mL (≈ 1.67 µM)
DNA replication SI (HBV DNA): 56.83

CCOC(=O)c1c(CS(=O)(=O)Cc2ccc(F)cc2)n(C)c2cc(Br)c(O)c(Cn3ccnc3C)c12 [Example 185, Ethyl 6-bromo-5-hydroxy-1-methyl-4-[(2-methyl-1-imidazolyl)methyl]-2-[(4-fluorobenzyl)sulfonylmethyl]-1H-indole-3-carboxylate]
TC50 (2.2.15 cells): 12.35 µg/mL (≈ 21.3 µM)
IC50 (HBV DNA): 1.3 µg/mL (≈ 2.25 µM)
DNA replication SI (HBV DNA): 9.5
